PMC6689897, “Drugging an undruggable pocket on KRAS” (Proceedings of the National Academy of Sciences of the …, 2019)

System: NCI-H358 cells
Assay: Soft agar proliferation assay in low serum
Type: cell-based
Conditions: Homo sapiens, soft agar and low serum conditions, read-out: EC50 antiproliferative effect
Procedure: 263 (ATCC® CCL-224™; grown in RPMI 10% FCS) and SK-MEL-28 (ATCC® HTB-
264 72™, grown in EMEM 10% FCS). Cell cultures were incubated at 37 °C and 5% CO2 in
265 a humidified atmosphere, with medium change or subcultivation 2-3 times a week.
269 Cells were lysed in 1x lysis buffer (Cell Signaling #9803) and protein concentration
270 normalized to 10µg/µL. Proteins were separated by SDS-Page and transferred to
271 Nitrocellulose membranes (BioRad) according to standard protocols. Membranes were
273 (Milipore #06-182) and Tubulin (Cell Signaling #2144) in 5% BSA in TBST blocking
274 buffer. After primary antibody incubation membranes were incubated with anti-rabbit
275 IgG secondary antibody (Dako #P0448) and detected with ECL (GE Healthcare Life
278 Compound treatment of cells
279 Synthesized or purchased (ARS 1620) compounds were dissolved in 100% DMSO and
280 stored at a concentration of 10mM at -20°C. Compounds were either serially diluted in […]
Quantification of living cells […]
291 manufacturer’s recommendation. Luminescence was read in a 2030 VICTOR X5 (Perkin […]
305 were trypsinized, counted and plated in 60 µL culture medium containing 2% FCS […]
313 added according to manufacturer’s instructions. Fluorescence intensity was determined
314 using a fluorescence reader (2030 VICTOR X5, Perkin Elmer). […]
319 MAPK pathway signaling (pERK, pAKT quantification) […]

`Cn1cnc(Cn2ccc3ccc(CNCc4[nH]c5ccccc5c4[C@H]4NC(=O)c5ccc(O)cc54)cc32)c1` [Compound 1] showed an EC50 of 6.7 µM.
